Literature values as cited in patent publication EP3373945B1, “AN ORAL DRUG FORMULATION COMPRISING SILYBIN” (ISTITUTO BIOCHIMICO ITALIANO GIOVANNI LORENZINI S.p.A., priority 2015, dated 2017).
Converted amounts (≈) assume the structure as drawn.

water solubility: 430 µg/mL (≈ 891 µM)
Compound: COc1cc(C2Oc3cc([C@H]4Oc5cc(O)cc(O)c5C(=O)[C@@H]4O)ccc3OC2CO)ccc1O (stereo partly shown) [silybin]
